We go through 1 molecule from patent US11642344B2, “Cholesteryl ester transfer protein (CETP) inhibitor and pharmaceutical compositions comprising said inhibitor for use in the treatment or prevention of cardiovascular diseases” (NewAmsterdam Pharma B.V., priority 2014, dated 2023).

What is called IC50 is the midpoint of a concentration-inhibition curve. Low values mean greater potency, high ones weaker potency.

The assay concerns the target T1, CETP (Homo sapiens, UniProt P11597).
T1 construct: from tissue; host or cells: plasma of Caucasian male subjects dosed with Compound A or placebo
T1 sequence (P11597 18-493): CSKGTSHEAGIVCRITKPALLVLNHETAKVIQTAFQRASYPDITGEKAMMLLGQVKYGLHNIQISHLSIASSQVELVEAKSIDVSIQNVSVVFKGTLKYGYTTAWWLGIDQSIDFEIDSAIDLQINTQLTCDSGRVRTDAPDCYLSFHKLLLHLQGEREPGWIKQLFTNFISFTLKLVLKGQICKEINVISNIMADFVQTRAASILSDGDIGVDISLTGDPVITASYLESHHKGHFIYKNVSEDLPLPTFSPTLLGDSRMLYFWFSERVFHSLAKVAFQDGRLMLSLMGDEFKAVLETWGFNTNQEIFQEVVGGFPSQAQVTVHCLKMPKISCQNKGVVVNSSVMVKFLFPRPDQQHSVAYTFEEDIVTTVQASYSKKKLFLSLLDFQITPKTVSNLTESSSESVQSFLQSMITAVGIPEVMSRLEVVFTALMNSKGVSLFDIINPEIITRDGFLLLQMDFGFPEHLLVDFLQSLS
The experiment in a line: In vitro CETP assay: 3H-labeled CE transfer from HDL to VLDL/LDL in human plasma. It is filed as biochemical. Particulars: 24 h pre-incubation at 37° C. Here is the method:
Human blood was obtained from healthy male volunteers using 0.1% EDTA as an anticoagulant, and centrifuged at 3,000 rpm for 15 minutes at 4° C. Human plasma was pooled, and then used for the preparation of ^3H-labeled HDL or stored at −80° C. for CETP assay until use. The ^3H-labeled HDL was prepared with human plasma as described by Glenn and Melton (Methods in enzymology. 263; 339-351, 1996). The specific gravity of plasma was measured by a hydrometer, and the density was adjusted to 1.125 g/mL by adding solid KBr. After centrifugation at 100,000 rpm for 4 hours at 12° C. (rotor: 100.4, Optima TLX, Beckman), d>1.125 g/mL fraction was dialyzed against 4 L of Tris-saline-EDTA buffer (TSE; 50 mmol/L Tris, 150 mmol/L NaCl, 2 mmol/L EDTA, pH7.4) for 18 hours at 4° C. [1,2-^3H(N)]-Cholesterol (37 MBq/mL) was added to the dialyzed plasma fraction at the amount of 2 μCi/mL. The tube was tightly sealed under N2 gas stream and incubated at 37° C. for 18 hours with gently stirring to allow esterification of radio-labeled cholesterol by endogenous LCAT. The incubated plasma fraction was adjusted to d=1.21 g/mL with solid KBr, and centrifuged at 100,000 rpm, 12° C. for 5 hours. ^3H-labeled HDL fraction was dialyzed against 2 L of TSE at 4° C. for 18 hours. The radioactivity of ^3H-labeled HDL was counted in a liquid scintillation counter. ^3H-labeled HDL was stored at 4° C. until use.
CETP activity was determined as the rate of ^3H-labeled CE transfer from donor HDL to acceptor VLDL/LDL. Human plasma (94 μL) was pre-incubated with compounds dissolved in DMSO (1 μL) 24 hours at 37° C., and then incubated for 4 hours at 4° C. or 37° C. with 5 μL of ^3H-labeled HDL. One hundred μL of phosphotungstate/MgCl2 reagent (Wako pure chemical) were added to precipitate apoB-containing lipoproteins. After centrifugation at 3,000 rpm for 10 minutes at room temperature, the radioactivity of the supernatant was counted in a liquid scintillation counter. […] The concentration achieving 50% inhibition of CETP activity (IC50) was estimated.

With `CCOC(=O)N1c2ccc(C(F)(F)F)cc2[C@@H](N(Cc2cc(C(F)(F)F)cc(C(F)(F)F)c2)c2ncc(OCCCC(=O)O)cn2)C[C@H]1CC` [Compound A, {4-[(2-{[3,5-bis(trifluoromethyl)benzyl][(2R,4S)-1-(ethoxycarbonyl)-2-ethyl-6-(trifluoromethyl)-1,2,3,4-tetrahydroquinolin-4-yl]amino}pyrimidin-5-yl)oxy]butanoic acid}], it took 0.064 µM to reach half-maximal inhibition (IC50). This lies in the double-digit nanomolar range.
